Laboratory results from publication PMC6748410, “A phase 2 study of an oral mTORC1/mTORC2 kinase inhibitor (CC-223) for non-pancreatic neuroendocrine tumors with or without carcinoid symptoms” (PLoS ONE, 2019).
Several values for one entry are separate records, joined by “and”; a condition that tells them apart may be missing. Equal entries are not always repeated. Where two headings read alike, the source gives them in different places.

Legend:
[1] = Plasma pharmacokinetics of CC-223 and metabolite M1 in patients with NET; assay type: in vivo, human; conditions: for CL/F / AUC / AUC(0-t) / Cmax / Vd/F: geometric mean (%CV, n); for Tmax / AUC / AUC(0-t) / Cmax / Vd/F: human, plasma; for Vd/F: read-out: Vz/F
Procedure: Blood for PK analysis was drawn on day 1 pre-dose and for up to 48 hours post-dose, and then on day 15 up to 8 hours post-dose. Urine on day 1 was collected within 30 minutes prior to dosing and at intervals up to 24 hours post-dose. Samples were assayed for CC-223 and the principal active metabolite (M1) using validated chiral liquid chromatography mass spectrometry. CC-223 PK parameters were calculated using dosing and sample collection times. Non-compartmental PK analysis was performed used WinNonlin Enterprise version 5.2 Model 200 and Model 210 (Certara, Princeton, NJ).

[2] = system: pAKT (mTORC2); assay: Stimulated blood biomarker assay in monocytes (CD14+) for pAKT (mTORC2 inhibition); assay type: in vivo, human; conditions: for pAKT median inhibition from baseline: 30 mg; for Blood pAKT median inhibition: 45 mg
Procedure: Central laboratories conducted serial stimulated blood biomarker assays in monocytes (CD14+) for p4E-BP1 and pPKB (also known as pAKT) for assessment of mTORC1 and mTORC2 inhibition, respectively. Monthly changes from baseline for chromogranin A (CgA), and for other serum hormones if elevated, were assayed locally.

[3] = system: well-differentiated NET of non-pancreatic gastrointestinal or unknown origin; assay: FDG PET SUV change from baseline to day 15 of cycle 1; assay type: in vivo, human
Procedure: (§1) Metabolic changes were assessed by percent change in total of standardized uptake value (SUV) of 2-^18F-fluoro-2-deoxyglucose (FDG) with PET scanning from baseline to day 15 in cycle 1. Carcinoid symptoms of flushing and diarrhea were documented monthly with a non-validated symptom questionnaire that was completed at each study visit. Patients reported whether they had experienced specific events, and the severity and/or frequency of these events. Symptom improvement was defined as ≥50% reduction in frequency and/or a 1-grade reduction in severity for each from baseline.

[4] = system: well-differentiated NET of non-pancreatic gastrointestinal or unknown origin; assay: Tumor response by investigator (RECIST version 1.1), PFS and OS; assay type: in vivo, human
Source text: Tumors were restaged by the principal investigator at each site using computed tomography (CT), positron emission tomography (PET)-CT, or magnetic resonance imaging scans after every 2 cycles through cycle 6, and every 3 cycles thereafter, using Response Evaluation Criteria In Solid Tumors (RECIST) version 1.1 criteria for response.
This phase 1/2 study was not powered for inferential statistics and mostly descriptive statistics were used. All patients dosed with CC-223 were included in the safety analysis. The efficacy analysis included all patients completing at least one cycle of drug who had both baseline and one post-baseline tumor efficacy assessment, unless otherwise specified. Categorical baseline variables including tumor type-specific characteristics were summarized using frequency counts and percentage. Continuous demographic and baseline characteristic variables were summarized by descriptive statistics. A Wilcoxon signed rank test was used to analyse change from baseline in serum hormone levels at selected scheduled visits.
Best overall tumor response by investigator assessment was summarized using frequency tabulation. Waterfall plots were used to show best percentage change from baseline in the sum of length (longest diameter) of target lesions.
Relationship between PFS and NET-specific assessments such as serum hormone levels and carcinoid symptoms were investigated. The Kaplan-Meier estimate of median PFS with its two-sided 95% confidence interval [CI] was provided for each baseline category of the selected biomarkers. Kaplan-Meier plots of PFS were created by category. The raw P value of the log rank test comparing survival distribution of PFS between categories was also provided.

[5] = system: carcinoid symptoms of flushing and diarrhea; assay: Carcinoid symptom questionnaire (flushing, diarrhea); assay type: in vivo, human
Procedure: as §1

[6] = 28-day GLP toxicology study, rat; assay type: in vivo
Procedure: A dose of 7.5 mg/day is proposed as the starting dose in this protocol. This dose is based on the recommendations in the March 2010 FDA Guidance for Industry entitled, “S9 Nonclinical Evaluation for Anticancer Pharmaceuticals,” where a start dose for first administration in humans should be either one-tenth the STD10 in rodents, or one-sixth of the HNSTD if the nonrodent is the most appropriate species. The conversion factors from the July 2005 FDA Guidance for Industry entitled, “Estimating the Maximum Safe Starting Dose in Initial Clinical Trials for Therapeutics in Adult Healthy Volunteers,” were used to convert the animal dose to the HED. The dose was converted to milligrams based on a 60-kg human body weight.
Species Animal Dose HED (mg/kg) HED (mg) Safety Factor Start Dose (mg) […]
Since the dog was identified as the most sensitive species in the 28-day GLP toxicology studies, the start dose for the study would be 8.2 mg/day. Based on available dosage strengths of the IP, a dose of 7.5 mg/day of CC-223 is deemed to be an acceptable starting dose for this initial trial in […]
Part B will consist of approximately 230 patients with selected tumor types to further assess the safety profile and provide preliminary efficacy information. […]

[7] = po, 30 mg/day, CC-223 30 mg/day oral, Day 1
[8] = po, 30 mg/day, CC-223 30 mg/day oral, Day 15, n = 1
[9] = po, 45 mg/day, CC-223 45 mg/day oral, Day 1

SMILES: CO[C@H]1CC[C@H](N2C(=O)CNc3ncc(-c4ccc(C(C)(C)O)nc4)nc32)CC1 [CC-223]
- CL/F ([1]; CC-223 30 mg/day oral, Day 1): 34.0 (34.2, n = 3) L/h
- CL/F ([1]; CC-223 45 mg/day oral, Day 1): 19.8 (20.1, n = 2) L/h
- Tmax ([1]; oral, regardless of starting dose, read-out: Median Tmax): 1.5 to 3 h
- AUC [1, 7]: 819 ng·h/mL
- AUC(0-t) [1, 7]: 840 ng·h/mL
- Cmax [1, 7]: 133 ng/mL
- AUC [1, 8]: 776 ng·h/mL
- AUC(0-t) [1, 8]: 776 ng·h/mL
- Cmax [1, 8]: 154 ng/mL
- Tmax ([1]; po, 30 mg/day, median (min, max, n), CC-223 30 mg/day oral, Day 1, read-out: Tmax): 1.7 h
- Tmax ([1]; po, 30 mg/day, median (min, max, n), CC-223 30 mg/day oral, Day 15, read-out: Tmax): 1.5 h
- AUC(0-t) [1, 9]: 1800 ng·h/mL
- Cmax [1, 9]: 347 ng/mL
- AUC ([1]; po, 45 mg/day, CC-223 45 mg/day oral, Day 1, n = 1): 1940 ng·h/mL
- Tmax ([1]; po, 45 mg/day, median (min, max, n), CC-223 45 mg/day oral, Day 1, read-out: Tmax): 1.52 h
- Vd/F ([1]; CC-223 30 mg/day oral, Day 1): 290 L
- Vd/F ([1]; CC-223 45 mg/day oral, Day 1): 125 L
- pAKT median inhibition from baseline ([2]; after the first dose): 59%
- pAKT median inhibition from baseline ([2]; day 15 after multiple doses): 79%
- Blood pAKT median inhibition ([2]; 1.5 hours after a single dose (day 1)): 83%
- Blood pAKT median inhibition ([2]; after multiple doses (day 15)): 76%
- pAKT median biomarker inhibition relative to baseline ([2]; across both dose level cohorts (45 mg or 30 mg), 1.5 hours after multiple dosing on day 15): > 70%
- Patients with at least a 25% reduction in SUV ([3]; 18 patients): 38.3%
- Patients with at least a 15% reduction in FDG uptake ([3]; 21 patients): 44.7%
- Mean percent decrease from baseline to day 15 in [18F]-FDG PET SUV ([3]; 31 patients, standard deviation 35.2%, P<0.0001): 32.0%
- Progressive disease (PD) ([4]; 1 of 41 evaluable patients, investigator assessment): 2.4%
- Partial response (PR) ([4]; 3 of 41 evaluable patients, investigator assessment): 7% and 7.3%
- Objective response rate (CR+PR) ([4]; 41 evaluable patients, 95% CI 1.5–19.9%): 7.3%
- Disease control rate (CR+PR+SD) ([4]; 41 evaluable patients, 95% CI 76.9–97.3%): 90% and 90.2%
- Complete response (CR) ([4]; 41 evaluable patients, investigator assessment): no patient
- Patients with tumor shrinkage of any magnitude relative to baseline ([4]; 95% CI 57.1–85.8%): 73.2%
- Median PFS in patients without carcinoid symptom improvement ([4]; ad hoc exploratory analysis, 95% CI 35.6–104.4): 48.1 weeks and 48 weeks
- Median PFS in patients with carcinoid symptom improvement ([4]; ad hoc exploratory analysis, 95% CI 72.6–not estimable): 108.4 weeks and 108 weeks
- PFS rate ([4]; at 6 months): 85%
- PFS rate ([4]; at 10 months): 64%
- OS rate ([4]; at 48 weeks): 0.97
- Duration of SD (min–max) ([4]; in vivo): 50 to 1519 days
- Median duration of SD ([4]; in vivo): 297 days
- Patients with duration of SD longer than a year ([4]; in vivo): 17 patients
- Median OS ([4]; treated population): not assessable
- Median progression-free survival (PFS) ([4]; treated population, 95% CI 10.4–28.5 months): 19.5 months
- Symptom reduction at any time during the study: both flushing and diarrhea ([5]; 5 of 13 affected patients): 39%
- Symptom reduction at any time during the study: flushing ([5]; 8 of 16 affected patients): 50%
- Symptom reduction at any time during the study: diarrhea ([5]; 9 of 22 affected patients): 41%
- HED (human equivalent dose) of STD10 ([6]; 60-kg human body weight): 96 mg
- HED (human equivalent dose) of STD10 ([6]; FDA conversion factors): 1.6 mg/kg
